Source: patent US20100251436A1, “METHOD FOR GROWING SUGARCANE” (SYNGENTA CROP PROTECTION, INC., priority 2007, published 2010)

System: sugar cane Variety RB 86-7515
Experiment: Greenhouse pot test of formulated agrochemicals on vigour (tillers, plant height, leaf width, culm diameter)
Settings: for number of tillers in comparison with the control / plant height in comparison with the control: greenhouse, rate of the respective example
Text: 1) carretel with one bud treated with abamectin 2) carretel with one bud treated with abamectin+15% v/v of polymer 3) stalk with 3 buds untreated 4) carretel with one bud untreated 5) carretel with one bud untreated+15% v/v of polymer 6) stalk with 3 buds treated with abamectin.
Twenty 1 L pots were filled with 16 L of clay soil, 1.6 L of sand and 8 g of nitrogen, 28 g of phosphorus (P2O5) and 16 g of potassium (K2O). Six carretels of 4 cm length with only one bud were planted in each pot (treatments 1, 2, 4 and 5). Two stalks with three buds were planted in each control pot (treatments 3 and 6) to simulate conventional planting. A layer of 3 cm of soil was used to cover the carretels. […] The stalks were treated simulating a furrow application at 100 L.ha^−1 of slurry. Experimental design adopted was randomized complete block with four replications. The pots were maintained with adequate moisture during the test. Evaluations of: plant height, leaf width, culm diameter and number of tillers were done at 20, 30 and 42 days after planting.

| Molecule | Tillers (abamectin 100 g ai/ha, carretel with one bud, dipped in slurry 3 min, 42 days after planting) [number] | number of tillers in comparison with the control (result in words) | plant height in comparison with the control (result in words) | increase in "quality" (result in words, not apparent from the measured parameters) |
| --- | --- | --- | --- | --- |
| abamectin | 14 | increase | decrease |  |
| O=[N+]([O-])NC1=NCCN1Cc1ccc(Cl)nc1 [Imidacloprid] |  | increase |  |  |
| CN/C(=N\[N+](=O)[O-])NCc1cnc(Cl)s1 [Clothianidin, clothianidin] |  | increased | slight reduction |  |
| CN1COCN(Cc2cnc(Cl)s2)/C1=N\[N+](=O)[O-] [Thiamethoxam, thiamethoxam] |  | increased | reduced | greater than the other treatments |
| N#Cc1nn(-c2c(Cl)cc(C(F)(F)F)cc2Cl)c(N)c1[S+]([O-])C(F)(F)F (centres unmarked) [Fipronil, fipronil] |  | increased | decreased |  |
